Measurements published in patent publication US7396943B2, “Opioid receptor antagonists” (Eli Lilly and Company, priority 2004, dated 2008).
Counter-ions that a name gives are not always drawn.

Legend:
Format in all cases: biochemical
[1] = target: mu opioid receptor (MOR) (Homo sapiens, UniProt P35372); assay: GTP-γ-S binding assay (SPA), antagonist mode, mu; settings: antagonism of agonist DAMGO 1 micromolar; membranes; Kb by Cheng-Prusoff equation; read-out: In Vitro Antagonism GTP-γ-S Kb (nM) Mu
Sequence of mu opioid receptor (MOR) (P35372 whole entry): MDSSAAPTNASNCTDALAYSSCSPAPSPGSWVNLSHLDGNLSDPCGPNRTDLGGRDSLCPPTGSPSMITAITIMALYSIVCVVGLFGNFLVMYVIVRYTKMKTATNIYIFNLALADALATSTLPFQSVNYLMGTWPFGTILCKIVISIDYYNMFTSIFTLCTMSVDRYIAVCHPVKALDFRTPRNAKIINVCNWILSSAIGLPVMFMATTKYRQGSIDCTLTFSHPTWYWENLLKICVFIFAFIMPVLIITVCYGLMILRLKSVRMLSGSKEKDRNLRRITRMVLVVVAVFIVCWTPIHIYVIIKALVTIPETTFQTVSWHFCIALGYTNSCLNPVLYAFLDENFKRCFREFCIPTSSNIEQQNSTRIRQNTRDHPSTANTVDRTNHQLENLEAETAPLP
Protocol: (§1) A scintillation proximity assay (SPA)-based GTP-γ-S^35 assay format was developed based on previous opioid (Emmerson et al., J. Pharm Exp Ther 278, 1121, 1996; Horng et al., Society for Neuroscience Abstracts, 434.6, 2000) and muscarinic (DeLapp et al., JPET 289, 946, 1999) assay formats. Membranes were resuspended in 20 mM HEPES, 100 mM NaCl, 5 mM MgCl2, 1 mM DTT, and 1 mM EDTA. […] of GTP-γ-[35S], compound, membrane suspension (20 microgram/well), and wheat germ agglutinin coated SPA beads (1 mg/well) were added to clear bottom 96 well assay plates. GDP ([…]) was added to the membrane solution prior to addition to the assay plates. Plates were sealed and incubated for four hours at room temperature then placed in a refrigerator overnight to allow the beads to settle. Signal stability at 4° C. was determined to be >60 hours. Plates were warmed to room temperature and counted in a Wallac Microbeta scintillation counter. For antagonist assays, specific agonists were added at the following concentrations: (MOR) DAMGO 1 micromolar, (DOR) DPDPE 30 nM, (KOR) US69593 300 nM. Kb's were determined by Cheng-Prusoff equation (see Cheng and Prusoff, Biochem. Pharmacol. 22, 3099 1973).

[2] = target: delta opioid receptor (DOR) (Homo sapiens, UniProt P41143); assay: GTP-γ-S binding assay (SPA), antagonist mode, delta; settings: antagonism of agonist DPDPE 30 nM; membranes; Kb by Cheng-Prusoff equation; read-out: In Vitro Antagonism GTP-γ-S Kb (nM) Delta
Sequence of delta opioid receptor (DOR) (P41143 whole entry): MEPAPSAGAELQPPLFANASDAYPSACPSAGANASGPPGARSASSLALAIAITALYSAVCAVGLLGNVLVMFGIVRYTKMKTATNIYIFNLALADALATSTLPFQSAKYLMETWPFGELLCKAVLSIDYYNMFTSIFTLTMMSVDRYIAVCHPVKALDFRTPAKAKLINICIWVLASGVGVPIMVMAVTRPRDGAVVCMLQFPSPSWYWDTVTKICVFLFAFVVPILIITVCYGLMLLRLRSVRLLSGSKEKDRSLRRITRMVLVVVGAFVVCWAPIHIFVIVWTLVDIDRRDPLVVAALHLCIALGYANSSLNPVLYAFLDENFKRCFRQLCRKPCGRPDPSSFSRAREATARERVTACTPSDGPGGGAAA
Protocol: as §1

[3] = target: kappa opioid receptor (KOR) (Homo sapiens, UniProt P41145); assay: GTP-γ-S binding assay (SPA), antagonist mode, kappa; settings: antagonism of agonist US69593 300 nM; membranes; Kb by Cheng-Prusoff equation; read-out: In Vitro Antagonism GTP-γ-S Kb (nM) Kappa
Sequence of kappa opioid receptor (KOR) (P41145 whole entry): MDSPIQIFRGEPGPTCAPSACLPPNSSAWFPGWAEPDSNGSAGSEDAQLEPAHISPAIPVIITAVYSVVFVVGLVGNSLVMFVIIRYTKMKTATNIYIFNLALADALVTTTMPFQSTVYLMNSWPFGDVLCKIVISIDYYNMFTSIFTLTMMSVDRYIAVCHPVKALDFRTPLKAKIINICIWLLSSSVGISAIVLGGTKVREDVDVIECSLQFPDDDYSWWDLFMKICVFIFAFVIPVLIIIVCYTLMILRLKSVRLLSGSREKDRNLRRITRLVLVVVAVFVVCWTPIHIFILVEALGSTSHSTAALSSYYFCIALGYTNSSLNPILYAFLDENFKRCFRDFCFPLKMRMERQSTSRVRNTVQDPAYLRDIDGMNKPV
Protocol: as §1

Structure (SMILES)	Kb [1]	Kb [2]	Kb [3]
NC(=O)c1ccc(Oc2ccc(CNCCc3ccccc3)s2)cc1 [Example 1, 4-[5-(Phenethylamino-methyl)-thiophen-2-yloxy]-benzamide]	0.6 nM	3.3 nM	4.6 nM
NC(=O)c1ccc(Oc2ccc(CNCCc3cccc(F)c3)s2)cc1 [Example 3, 4-(5-{[2-(3-Fluoro-phenyl)-ethylamino]-methyl}-thiophen-2-yloxy)-benzamide]	0.6 nM	1.6 nM	3.9 nM
NC(=O)c1ccc(Oc2ccc(CNCCC3CCCC3)s2)cc1 [Example 4, 4-{5-[(2-Cyclopentyl-ethylamino)-methyl]-thiophen-2-yloxy}-benzamide]	0.6 nM	2.7 nM	1 nM
NC(=O)c1ccc(Oc2ccc(CNCCc3cccs3)s2)cc1 [Example 5, 4-{5-[(2-Thiophen-2-yl-ethylamino)-methyl]-thiophen-2-yloxy}-benzamide]	0.6 nM	2.4 nM	1.4 nM

Further lines, results first:

Kb [1]	Kb [2]	Kb [3]	Structure (SMILES)
3.7 nM	19.4 nM	2.2 nM	CC(C)CCNCc1ccc(Oc2ccc(C(N)=O)cc2)s1 [Example 2, 4-{5-[(3-Methyl-butylamino)-methyl]-thiophen-2-yloxy}-benzamide]
5.7 nM	13.7 nM		CC(C)(C)CCNCc1ccc(Oc2ccc(C(N)=O)cc2)s1 [Example 6, 4-{5-[(3,3-Dimethyl-butylamino)-methyl]-thiophen-2-yloxy}-benzamide]
0.3 nM	1.3 nM	4 nM	COc1cc(C(N)=O)ccc1Oc1ccc(CNCCc2ccccc2)s1 [Example 7, 3-Methoxy-4-[5-(phenethylamino-methyl)-thiophen-2-yloxy]-benzamide hydrochloride]
4.7 nM	40.5 nM	3.2 nM	COc1cc(C(N)=O)ccc1Oc1ccc(CNCCC(C)C)s1 [Example 8, 3-Methoxy-4-{5-[(3-methyl-butylamino)-methyl]-thiophen-2-yloxy}-benzamide hydrochloride]
